According to publication PMC6982798, “Evaluation of Isoflavones as Bone Resorption Inhibitors upon Interactions with Receptor Activator of Nuclear Factor-κB Ligand (RANKL)” (Molecules, 2020):

Target: T1, sRANKL recombinant (RANKL) (Homo sapiens, UniProt O14788)
T1 construct: gene TNFSF11; human is named only for the docking model (3URF), whose residue numbers (K181, Y235, Q237, Y241) fit human RANKL
T1 sequence (O14788 140-317 limits assumed): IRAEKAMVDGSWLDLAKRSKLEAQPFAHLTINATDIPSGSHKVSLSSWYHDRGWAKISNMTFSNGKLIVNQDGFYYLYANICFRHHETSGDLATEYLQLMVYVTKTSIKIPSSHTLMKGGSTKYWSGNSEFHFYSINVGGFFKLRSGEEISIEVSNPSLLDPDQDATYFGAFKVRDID
Experiment: isothermal titration calorimetry (ITC), single binding mode fit
Conditions: read-out: KA × 10^3 (L/mol) (converted)
From the text: isothermal titration calorimetry (ITC), single binding mode fit on sRANKL recombinant (RANKL)

Row | Compound | Kd
1 | O=c1oc2cc(O)ccc2c2oc3cc(O)ccc3c12 [Coumestrol] | 1430 µM
2 | COc1ccc(-c2coc3cc(O)ccc3c2=O)cc1 [Formononetin] | 318 µM

Continued, values first:

Row | Kd | Compound
3 | 833 µM | COc1ccc(-c2coc3cc(O)cc(O)c3c2=O)cc1 [Biochanin A]
4 | 62.7 µM | O=c1c(-c2ccc(O)cc2)coc2cc(O)ccc12 [Daidzein]
5 | 317 µM | O=c1c(-c2ccc(O)cc2)coc2cc(O)cc(O)c12 [Genistein]
